From patent publication US8003642B2, “Nitrogenated heterocyclic derivative, and pharmaceutical agent comprising the derivative as active ingredient” (Ono Pharmaceutical Co., Ltd., priority 2006, dated 2011)

Assays:
human CYP3A4 = biological target: T1, human CYP3A4 (Homo sapiens, UniProt P08684); experiment: Inhibitory activity against human CYP3A4 (7-benzyloxyquinoline substrate, expression system microsome); assay type: in vitro ADME; conditions: substrate 7-BQ 40 μM, expression system microsome 0.25 mg/mL, 30 minutes incubation, fluorescence
T1 construct: purchased Daiichikagakuyakuhin
T1 sequence (P08684 whole entry): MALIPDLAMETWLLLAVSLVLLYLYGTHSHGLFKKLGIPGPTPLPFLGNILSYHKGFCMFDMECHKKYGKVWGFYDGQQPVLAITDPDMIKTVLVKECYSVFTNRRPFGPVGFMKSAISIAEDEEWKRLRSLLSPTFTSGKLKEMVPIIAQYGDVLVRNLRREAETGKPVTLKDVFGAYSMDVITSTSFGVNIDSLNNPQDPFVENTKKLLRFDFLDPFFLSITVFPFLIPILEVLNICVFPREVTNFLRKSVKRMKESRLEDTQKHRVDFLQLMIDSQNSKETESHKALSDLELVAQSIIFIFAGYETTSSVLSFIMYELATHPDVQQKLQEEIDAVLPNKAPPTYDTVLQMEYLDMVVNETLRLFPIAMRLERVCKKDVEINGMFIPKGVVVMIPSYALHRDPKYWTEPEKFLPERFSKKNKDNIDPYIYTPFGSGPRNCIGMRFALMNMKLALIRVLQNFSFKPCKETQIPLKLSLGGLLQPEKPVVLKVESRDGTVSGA
Experimental: Inhibitory activity against human CYP3A4 of the compound of the present invention can be evaluated by an improved method described in Drug Metabolism and Disposition, Vol. 28(12), 1440-1448 (2000).
For example, a reaction solution consisted of potassium phosphate buffer (pH 7.4) (final concentration: 200 mM), magnesium chloride hexahydrate (final concentration: 5 mM), substrate (7-benzyloxyquinoline (7-BQ), final concentration: 40 μM), and expression system microsome (Daiichikagakuyakuhin, final concentration: 0.25 mg/mL) was prepared. 100 μL of the reaction solution is dispensed in 96 well plate, and added by 50 μL of an aqueous solution containing test a compound and 0.8% acetonitrile, to carry out 10 minutes of preincubation at 37° C. 50 μL of a reduced nicotinamide adenine dinucleotide phosphate (NADPH, 4 mM) is added to initiate a reaction. The fluorescence intensity of each well was measured at the time when NADPH was added and after incubated for 30 minutes. Excitation wavelength at 409 nm and emission wavelength at 530 nm of quinolinol, which is metabolite of substrate, was measured. Inhibition ratio (%) of the test compound was calculated by the following calculation formula to obtain IC50 value. Inhibition ratio(%)=[1−{(measured value when a test compound is added)−(blank value)/(control value−blank value)}]×100

human CCR5 = human CCR5 (Homo sapiens, UniProt P51681); experiment: CCR5 binding test ([125I]MIP-1β binding inhibition); conditions: inhibition of [125I]MIP-1β (0.1 nM) binding to membrane fraction of human CCR5 stably over-expressing CHO-K1 cell, 25° C., 120 minutes
human CCR5, sequence (P51681 whole entry): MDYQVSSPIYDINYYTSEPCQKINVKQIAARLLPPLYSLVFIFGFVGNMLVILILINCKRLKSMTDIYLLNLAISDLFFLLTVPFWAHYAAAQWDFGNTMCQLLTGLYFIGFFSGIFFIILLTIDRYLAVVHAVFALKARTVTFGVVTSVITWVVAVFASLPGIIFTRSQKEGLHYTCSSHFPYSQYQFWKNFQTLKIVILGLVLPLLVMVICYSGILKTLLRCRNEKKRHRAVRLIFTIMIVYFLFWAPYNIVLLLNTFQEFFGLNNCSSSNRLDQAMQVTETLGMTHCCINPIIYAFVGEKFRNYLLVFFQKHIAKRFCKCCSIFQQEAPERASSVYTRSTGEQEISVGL
Experimental: A membrane fraction of the human CCR5 stably over-expressing CHO-K1 cell was suspended in assay buffer (50 mM HEPES/0.5% BSA/1 mM calcium chloride/5 mM magnesium chloride, pH 7.4) and dispensed in a 48 well polypropylene plate with U-shaped bottom in the amount corresponding to 1 μg of protein/well. Then, an unlabelled ligand was added so as to obtain a concentration of 0.1 μM in a non-specific binding group, while a compound was added so as to obtain a final concentration of 0.003 to 0.3 μM in a compound group. Subsequently, [^125I]MIP-1β was added so as to obtain a final concentration of 0.1 nM and a mixture thereof was incubated at 25° C. for 120 minutes. The membrane fraction was trapped with a filter, washed, and then radioactivity of [^125I]MIP-1β was measured by a γ counter.
Inhibition ratio (%) of the test compound was calculated by the following calculation formula. Inhibition ratio=[(Ec−Ea)/Ec]×100 • Ec: Radioactivity of when DMSO control solution is added−radioactivity of non-specific binding group • Ea: Radioactivity of when test compound is added−radioactivity of non-specific binding group

IC50 (human CYP3A4)	IC50 (human CCR5)	Compound
≥ 30 µM		CCCCN(C(=O)Nc1cc(C(N)=O)c(F)cc1F)C1CCN(Cc2ccc(Oc3ccc(C(=O)N4CCN(C(C)=O)CC4)cc3)nc2C)CC1 [Example 16(60), 5-{[{1-[(6-{4-[(4-acetyl-1-piperazinyl)carbonyl]phenoxy}-2-methyl-3-pyridinyl)methyl]-4-piperidinyl}(butyl)carbamoyl]amino}-2,4-difluorobenzamide]
≥ 30 µM	≤ 0.1 µM	CCCCN(C(=O)Nc1cc(C(N)=O)c(F)cc1F)C1CCN(Cc2ccc(Oc3ccc(C(=O)N(C)C)cc3)nc2C)CC1 [Example 16(61), 5-({butyl[1-({6-[4-(dimethylcarbamoyl)phenoxy]-2-methyl-3-pyridinyl}methyl)-4-piperidinyl]carbamoyl}amino)-2,4-difluorobenzamide]
	≤ 0.1 µM	CCCCN(C(=O)Nc1cc(C(N)=O)c(F)cc1F)C1CCN(Cc2ccc(Oc3ccc(C(=O)NCC)cc3)nc2C)CC1 [Example 16(62), 5-({butyl[1-({6-[4-(ethylcarbamoyl)phenoxy]-2-methyl-3-pyridinyl}methyl)-4-piperidinyl]carbamoyl}amino)-2,4-difluorobenzamide]
≥ 30 µM		CCCCN(C(=O)Nc1cc(C(N)=O)c(F)cc1F)C1CCN(Cc2ccc(Oc3ccc(C(=O)N4CCN(C)CC4)cc3)nc2C)CC1 [Example 16(63), 5-[(butyl {1-[(2-methyl-6-{4-[(4-methyl-1-piperazinyl)carbonyl]phenoxy}-3-pyridinyl)methyl]-4-piperidinyl}carbamoyl)amino]-2,4-difluorobenzamide]
